Reference: US20230358677A1, “Reversible Excited-State Photoacids and Photobases as Dynamic Fluorescence Sensors of Protonic Species” (California Institute of Technology, priority 2022, published 2023)

Tests used:
[1] = cited from earlier work
[2] = Stern-Volmer analysis of quenching of HPhenDS by proton acceptors; assay type: physicochemical; conditions: quenching of aqueous HPhenDS, constant ionic strength
Procedure: ESPT availability and ESPT to water curves are calculated from steady-state absorption and photoluminescence data for 15 μM HPhenDS across the pH window indicated at constant ionic strength (except for pH values below 0). Concentrations of all buffers were simulated to be 1 M total salt added. Ability to sense is predicted by estimating total concentration at a given pH value based on the pKa value of the buffer and fit to a Henderson-Hasselbalch-type equation. The resultant concentration is then multiplied by the ESPT availability of HPhenDS at each pH value.
FIGS. 21A and 21B illustrate Stern-Volmer analysis for quenching constant Ksv in accordance with an embodiment.

[3] = Stability of dye fluorescence near an operating gas diffusion electrode
[4] = Acid-base titrations of NS—NH2 in the presence of proton-accepting quenchers (modified Stern-Volmer, Equation 7); conditions: for pKa,BH+ (Equation 7), value after the slash: equals titration-curve values of b153; for k+q,corr: corrected rate constant, ESPT from NS—NH2* to the proton acceptor; for k+q: direct excited-state proton transfer from NS—NH2* to the proton acceptor; for KSV,quencher (Equation 7) / KSV,quencher (traditional linearized Stern-Volmer): quenching of NS—NH2*; for KSV,OH−: Equation 7
Excerpt: Assuming that photoluminescence quenching occurs by ESPT from NS—NH2* to OH^−(aq), the data support that when aOH− is small (i.e. at pH less than about 12), ESPT can be quite slow compared to the excited-state lifetime of NS—NH2*, due to mass action (FIG. 2B). The non-unity quantum yield for ESPT in weakly alkaline aqueous solutions afforded us an opportunity to evaluate a series of aqueous proton-accepting quenchers (glycine (Gly(aq)), proline (Pro(aq)), and trifluoroethanol (TFE(aq))) for their ability to undergo ESPT with NS—NH2*. In order to clearly observe ESPT to a species other than OH^−(aq), added proton-accepting quenchers had to be more basic (ΔG^o<0), or slightly more acidic (ΔG^o>0), than NS—NH2*, and less basic than OH^−(aq). […] As pH values approach and pass the pKa of the proton-accepting quencher, the rate of ESPT slows from a decrease in the concentration of proton-accepting quencher due to its protonation. This is supported by observations from analogous experiments performed using different concentrations of quencher. Best fits of measured photoluminescence spectroscopy data to a modified Stern-Volmer equation for a two-quencher system, including both OH^−(aq) and proton-accepting quencher, provided bimolecular rate constants for deprotonation of the photoacid by each quencher,
where KSV,OH−=K*^−1b and KSV,quencher=k+q,quencherτo,PAH* are the dynamic quenching constants for excited-state proton transfer to OH^−(aq) and proton-accepting quencher, respectively, k+q,quencher is the bimolecular rate constant (M^−1 s^−1) for ESPT quenching by the proton-accepting quencher, and the sum of the activities of B and BH^+ is approximated as the total concentration of the proton-accepting quencher. While the pKa of the proton-accepting quencher is an adjustable parameter during best fitting, extracted pKa values are close to pKa values obtained from the acid-base titration curves of the proton-accepting quenchers. Changing the proton-accepting quencher to one with a smaller pKa value results in a slower non-diffusion-limited rate constant for ESPT with NS—NH2*. The observation of ESPT directly from NS—NH2* to each of two different amino acids, Gly and Pro, is notable, and may have important implications for biological systems where direct protonation of proteins can induce cellular responses.
Table 2 lists driving-force-dependent rate constants for direct excited-state proton transfer from NS—NH2* to various proton-accepting quenchers.
(§1) Several embodiments use the steady-state ultraviolet-visible electronic absorption and photoluminescence spectroscopy for characterization. Equal amounts of aromatic amine photoacids are portioned into five separate 100 mL volumetric flasks. For the non-proton-accepting quencher experiments, the five flasks are filled to the volumetric marker with aqueous solutions of 1 M HCl, 1 M KOH, 2 M KOH, 3 M KOH, and 4 M KOH. The aqueous 1 M KOH solution is titrated with the aqueous 1 M HCl solution to reach the desired pH values from 14 to 6, and the H^+ activities are measured using a pH meter (pH/Ion 510). […] Electronic absorption spectra and photoluminescence spectra are acquired using absorbance and fluorescence spectrometer(s), using a square-bottom quartz cuvette (1 cm path length) at room temperature. Electronic absorption spectra are baselined on a spectrum of deionized water and were corrected for scattering of light. Photoluminescence spectra are recorded by exciting with 310 nm light, slit widths for the excitation and emission monochromators were set to 5 nm, and the PMT detector voltage is set to 600 V. Photoluminescence spectra are corrected for changes in solution refractive index, inner filter effects and the wavelength-dependent correction factor of the fluorimeter.

[5] = 1 M aqueous solution titrated with 4 M KOH
[6] = proton acceptor, aqueous; cited from earlier work
[7] = Acid-base titration of aqueous photoacid with absorption and steady-state photoluminescence detection (Henderson-Hasselbalch / Stern-Volmer fits, OH− as quencher)
Excerpt: FIGS. 2A through 2C illustrate acid-base titration of an aqueous solution of NS—NH2 photoacid with absorption and photoluminescence detection in accordance with an embodiment.
where aOH− is the activity of OH^−(aq), K*b pseudo is an erroneous observed equilibrium constant for base dissociation and KSV,OH− is the Stern-Volmer quenching constant, which is strictly dimensionless but reported here in units of M^−1 to be consistent with its typical usage. Unlike the Henderson-Hasselbalch equation, the Stern-Volmer equation is also applicable to non-equilibrium processes.
and KSV,OH−=k+q,OH−τo,PAH*, where τ is the excited-state lifetime (s) of NS—NH2* in the absence (τo,PAH*) or presence (τPAH*) of OH^− quencher and k+q,OH− is the bimolecular rate constant (M^−1 s^−1) for quenching of NS—NH2* by OH^− (forward direction of Reaction 1 with B=OH^−(aq)).
as §1, with “fluorimeter. For experiments that use non-OH^− proton-accepting quenchers, equal amounts of the quencher are added to the dry volumetric flask intended to form the acidic and basic aqueous photoacid solutions, to prevent changes in total quencher concentration during the titration, and titrations are performed similarly to those in the absence of added proton-accepting quenchers. Although the total quencher concentration is kept constant throughout the titration, the activity of the deprotonated quencher species varied as a function of solution pH according to Equation 3. Ionic strength is matched at the most alkaline pH values; however, it is experimentally difficult to maintain the same ionic strength throughout the titration. Normalized photoluminescence intensities as a function of solution pH are obtained by dividing the corrected photoluminescence intensities at the wavelength of maximum photoluminescence to the maximum corrected photoluminescence intensity at the same wavelength.” for “fluorimeter.”

[8] = Marcus-Cohen bond-energy-bond-order (BEBO) analysis of quenching rate constants; assay type: physicochemical
Excerpt: Several embodiments provide accurate quantification of excited-state Brønsted-Lowry acidity and reorganization energy of weak photoacids using Marcus-Cohen bond-energy-bond-order (BEBO) theory. Data for this series of proton-accepting quenchers analyze the dependence of driving force on ESPT quenching rate constants and assess the validity of Marcus normal region behavior, as has been performed numerous times for excited-state electron transfer and proton-coupled electron transfer. Like excited-state electron-transfer quenching in polar solvents, ESPT is proposed to proceed through formation of an excited-state encounter complex between reactants prior to proton transfer, but unique to ESPT is dissociation of an excited-state encounter complex between products after proton transfer. […]
where ΔGEC,R^o, ΔGPT^oand −ΔGEC,P^o are the standard Gibbs free energy differences for the individual reaction steps in the excited-state proton-transfer reaction sequence. Kinetic data (Equation 8) and thermodynamic data (Equation 11) are analyzed using Marcus-Cohen bond-energy-bond-order (BEBO) theory, which is based on transition-state theory and results in the following relationship between ΔGPT^‡ and ΔGPT^o, […]

[9] = cited from earlier work; remark: listed apart in the source
[10] = conjugate acid of proton acceptor
[11] = 1 M total trifluoroethanol present

With `Oc1ccc2ccc3cccc4ccc1c2c34` [1-hydroxypyrene] as the molecule, how does the “ground state pKa” value [1] read?
The value was “about 9”.

With `CC(=O)O` [Acetate] as the molecule, how does the KSV [2] read?
The KSV was “about 0.1548 M^−1”.

Which KSV [2] does the source give for `O=C(O)O` [Bicarbonate] here?
Its KSV is “about 0.6051 M^−1”.

With `O=C([O-])[O-].[Na+].[Na+]` [Carbonate] as the molecule, how does the KSV [2] read?
Its KSV is “about 1.02 M^−1”.

For `O=S(=O)(O)c1cc(S(=O)(=O)O)c2ccc3c(O)cc(O)c4ccc1c2c43` [DHPDS, 6,8-dihydroxy-1,3-pyrenedisulfonic acid], which “pK*a” value ([1]; strong photoacid) is on record?
The value was “≈ 0”.

And the “fluorescent signal during GDE operation” value ([3]; cathodic current densities of 100 mA/cm^2 in magnitude, or larger)?
Its value is “Some loss of fluorescent signal”.

What about the “photoluminescence intensity during GDE operation” value ([3]; current density between 0 and −20 mA/cm^2) of the same molecule?
Its value is “no significant decrease in photoluminescence intensity”.

With `O=CO` [Formate] as the molecule, how does the KSV [2] read?
Its KSV is “about 0.4623 M^−1”.

With `NCC(=O)O` [Glycine] as the molecule, how does the “bimolecular rate constant, deprotonation of NS—NH2* by the quencher” value ([4]; 1 M total quencher) read?
Its value is “(0.39±0.02)×10^8 M^−1 s^−1”.

And the “bimolecular rate constant, deprotonation of NS—NH2* by the quencher” value ([4]; 2 M total glycine)?
Its value is “(0.90±0.04)×10^8 M^−1 s^−1”.

And the “pKa,BH+ (Equation 7), value before the slash” value [4, 10]?
Its value is 9.7.

And the “pKa,BH+ (Equation 7), value after the slash” value [4, 10]?
The value was 9.9.

What about the “k+q,corr” value [4] of the same molecule?
Its value is 1.44 ± 0.07 10^8 M^−1 s^−1.

What about the “k+q” value [4] of the same molecule?
Its value is 0.39 ± 0.02 10^8 M^−1 s^−1.

What about the “KSV,quencher (Equation 7)” value ([4]; 1 M total quencher) of the same molecule?
Its value is 0.18 ± 0.01 M⁻¹.

And the “KSV,quencher (traditional linearized Stern-Volmer)” value ([4]; 1 M total quencher)?
The value was 0.19 ± 0.01 M⁻¹.

And the “KSV,quencher (Equation 7)” value ([4]; 2 M total glycine)?
The value was 0.20 ± 0.01 M⁻¹.

And the “pKa from acid-base titration curve” value [5]?
The value was 9.9.

What about the “Diffusion Coefficient” value [6] of the same molecule?
The value was 10.60 10^−6 cm^2/s.

Which results are given for `Nc1cccc2c(S(=O)(=O)[O-])cccc12.[Na+]` [NS—NH2, 5-aminonaphthalene-1-sulfonic acid sodium salt]?
pKa ([7]; aqueous solution, ground-state pKa, aromatic amine, aqueous): > 17; KSV,τ,OH− (linearized Stern-Volmer) ([7]; lifetime data, linearized Stern-Volmer fit, OH−(aq) quencher): about 55±1 M^−1; KSV,τ,OH− ([7]; lifetime data, non-linear Stern-Volmer fit, OH−(aq) quencher): about 54±6 M^−1; bimolecular rate constant k+q,τ,OH− ([7]; lifetime data, forward direction of Reaction 1 with B=OH−(aq)): about (12±1)×10^9 M^−1 s^−1; KSV,ss,OH− ([7]; steady-state photoluminescence, non-linear Stern-Volmer fit, OH−(aq) quencher): about 47±1 M^−1; KSV,ss,OH− (linearized Stern-Volmer) ([7]; steady-state photoluminescence, traditional linearized Stern-Volmer fit, OH−(aq) quencher): about 46±1 M^−1; bimolecular rate constant, deprotonation of NS—NH2* by OH−(aq) ([4]; 0.17 M total phosphate present): (163±8)×10^8 M^−1 s^−1; bimolecular rate constant, deprotonation of NS—NH2* by OH−(aq) ([4]; 1 M total glycine present): (43±1)×10^8 M^−1 s^−1; bimolecular rate constant, deprotonation of NS—NH2* by OH−(aq) ([4]; 1 M total proline present): (47±2)×10^8 M^−1 s^−1; bimolecular rate constant, deprotonation of NS—NH2* by OH−(aq) [4, 11]: (60±30)×10^8 M^−1 s^−1; bimolecular rate constant, deprotonation of NS—NH2* by OH−(aq) ([4]; 2 M total glycine present): (38±2)×10^8 M^−1 s^−1; KSV,OH− ([4]; 0.17 M total phosphate present): 37 ± 2 M⁻¹; KSV,OH− ([4]; 1 M total glycine present): 20 ± 1 M⁻¹; KSV,OH− ([4]; 1 M total proline present): 22 ± 1 M⁻¹; KSV,OH− [4, 11]: 30 ± 10 M⁻¹; KSV,OH− ([4]; 2 M total glycine present): 8.6 ± 0.4 M⁻¹; ΔGo,PT‡ ([8]; Gibbs free energy of activation of proton-transfer step at ΔGPT°=0): 0.080±0.005 eV; “true” pK*a ([8]; Marcus-Cohen BEBO analysis): 11.7±0.1

What does the source list for Hydroxide?
pKa,BH+ (Equation 7), value before the slash [4, 10]: 14/—; k+q,corr [4]: 100 ± 3 10^8 M^−1 s^−1; k+q [4]: 100 ± 3 10^8 M^−1 s^−1; Diffusion Coefficient [6]: 52.70 10^−6 cm^2/s

What does the source list for Phosphate?
pKa,BH+ (Equation 7), value before the slash [4]: 11.4/—; bimolecular rate constant, deprotonation of NS—NH2* by the quencher ([4]; 0.17 M total phosphate): (11±2)×10^8 M^−1 s^−1; k+q,corr [4]: 22.6 ± 3.8 10^8 M^−1 s^−1; k+q [4]: 5.4 ± 0.9 10^8 M^−1 s^−1; KSV,quencher (Equation 7) ([4]; 0.17 M total phosphate): 2.2 ± 0.3 M⁻¹; KSV,quencher (traditional linearized Stern-Volmer) ([4]; 0.17 M total phosphate): 3.4 ± 0.1 M⁻¹; Diffusion Coefficient [6]: 8.79 10^−6 cm^2/s

What does the source list for Trifluoroethanol?
bimolecular rate constant, deprotonation of NS—NH2* by the quencher ([4]; 1 M total quencher): (11±2)×10^8 M^−1 s^−1; pKa,BH+ (Equation 7), value before the slash [4, 10]: 12.4; pKa,BH+ (Equation 7), value after the slash [4, 10]: 12.6; k+q,corr [4]: 58.7 ± 11.5 10^8 M^−1 s^−1; k+q [4]: 11.2 ± 2.2 10^8 M^−1 s^−1; KSV,quencher (Equation 7) ([4]; 1 M total quencher): 5 ± 1 M⁻¹; KSV,quencher (traditional linearized Stern-Volmer) ([4]; 1 M total quencher): 6.2 ± 0.1 M⁻¹; pKa from acid-base titration curve [5]: 12.6; Diffusion Coefficient [6]: 6.00 10^−6 cm^2/s; pKa, literature value [9]: 12.4
